Assay results reported in the supplement of paper PMC10307832.

Columns and labels:
Experiment in all cases: relative viability (nuclei count vs DMSO), 5 days (fraction); higher = more cells survive
Bleomycin + Vorinostat = compound: CC1=C(N=C(N=C1N)[C@H](CC(=O)N)NC[C@@H](C(=O)N)N)C(=O)N[C@@H]([C@H](C2=CN=CN2)OC3C(C(C(C(O3)CO)O)O)OC4C(C(C(C(O4)CO)O)OC(=O)N)O)C(=O)N[C@H](C)[C@H]([C@H](C)C(=O)N[C@@H]([C@@H](C)O)C(=O)NCCC5=NC(=CS5)C6=NC(=CS6)C(=O)NCCC[S+](C)C)O [Bleomycin] + O=C(CCCCCCC(=O)Nc1ccccc1)NO [Vorinostat] (partner 1 µM); conditions: main component drawn
How it was run: (§1)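 Relative viability equals treated-well nuclei counts divided by vehicle-well nuclei counts. Counts came from 4× images of lung cancer cell lines grown in 1536-well plates for 5 days after pin-tool dosing on the day after seeding. Dosing used one drug alone or a fixed anchor-drug dose plus five library-drug doses (not always all listed) in √10 steps, and values are medians of duplicate plates.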

Etoposide + Vorinostat = compound: COc1cc([C@@H]2c3cc4c(cc3[C@@H](O[C@@H]3O[C@@H]5CO[C@@H](C)O[C@H]5[C@H](O)[C@H]3O)[C@H]3COC(=O)[C@H]23)OCO4)cc(OC)c1O [Etoposide] + O=C(CCCCCCC(=O)Nc1ccccc1)NO [Vorinostat] (partner 1 µM)
How it was run: as §1

Etoposide + Lapatinib = compound: COc1cc([C@@H]2c3cc4c(cc3[C@@H](O[C@@H]3O[C@@H]5CO[C@@H](C)O[C@H]5[C@H](O)[C@H]3O)[C@H]3COC(=O)[C@H]23)OCO4)cc(OC)c1O [Etoposide] + CS(=O)(=O)CCNCc1ccc(-c2ccc3ncnc(Nc4ccc(OCc5cccc(F)c5)c(Cl)c4)c3c2)o1 [Lapatinib] (partner 2 µM)
How it was run: as §1

Bleomycin + Phenformin = compound: CC1=C(N=C(N=C1N)[C@H](CC(=O)N)NC[C@@H](C(=O)N)N)C(=O)N[C@@H]([C@H](C2=CN=CN2)OC3C(C(C(C(O3)CO)O)O)OC4C(C(C(C(O4)CO)O)OC(=O)N)O)C(=O)N[C@H](C)[C@H]([C@H](C)C(=O)N[C@@H]([C@@H](C)O)C(=O)NCCC5=NC(=CS5)C6=NC(=CS6)C(=O)NCCC[S+](C)C)O [Bleomycin] + N=C(N)NC(=N)NCCc1ccccc1 [Phenformin] (partner 250 µM); conditions: main component drawn
How it was run: as §1

| Cell Line | relative viability (Bleomycin + Vorinostat; first compound 0.01 µM) | relative viability (Bleomycin + Vorinostat; first compound 0.03162 µM) | relative viability (Bleomycin + Vorinostat; first compound 0.1 µM) | relative viability (Bleomycin + Vorinostat; first compound 0.3162 µM) | relative viability (Bleomycin + Vorinostat; first compound 1 µM) | relative viability (Etoposide + Vorinostat; first compound 0.01 µM) | relative viability (Etoposide + Vorinostat; first compound 0.03162 µM) | relative viability (Etoposide + Vorinostat; first compound 0.1 µM) | relative viability (Etoposide + Vorinostat; first compound 0.3162 µM) | relative viability (Etoposide + Vorinostat; first compound 1 µM) | relative viability (Etoposide + Lapatinib; first compound 0.01 µM) | relative viability (Etoposide + Lapatinib; first compound 0.03162 µM) | relative viability (Etoposide + Lapatinib; first compound 0.1 µM) | relative viability (Etoposide + Lapatinib; first compound 0.3162 µM) | relative viability (Etoposide + Lapatinib; first compound 1 µM) | relative viability (Bleomycin + Phenformin; first compound 0.01 µM) | relative viability (Bleomycin + Phenformin; first compound 0.03162 µM) | relative viability (Bleomycin + Phenformin; first compound 0.1 µM) | relative viability (Bleomycin + Phenformin; first compound 0.3162 µM) | relative viability (Bleomycin + Phenformin; first compound 1 µM) |
| --- | --- | --- | --- | --- | --- | --- | --- | --- | --- | --- | --- | --- | --- | --- | --- | --- | --- | --- | --- | --- |
| PC-14 | 0.414 | 0.406 | 0.198 | 0.0393 | 0.0658 | 0.762 | 0.89 | 0.558 | 0.495 | 0.234 | 0.307 | 0.349 | 0.225 | 0.366 | 0.229 | 0.433 | 0.341 | 0.197 | 0.0557 | 0.0309 |
| NCI-H1755 | 0.606 | 0.736 | 0.714 | 0.521 | 0.636 | 0.748 | 0.896 | 0.694 | 0.743 | 0.474 | 1.06 | 1.13 | 1.02 | 0.988 | 0.71 | 0.562 | 0.589 | 0.593 | 0.507 | 0.39 |
| HCC-78 | 0.388 | 0.362 | 0.487 | 0.399 | 0.391 | 0.396 | 0.494 | 0.329 | 0.256 | 0.242 | 1.03 | 0.836 | 0.206 | 0.134 | 0.202 | 0.573 | 0.74 | 0.581 | 0.321 | 0.403 |
| IA-LM | 0.791 | 0.802 | 0.801 | 0.398 | 0.635 | 0.701 | 1 | 0.577 | 0.826 | 0.354 | 0.704 | 0.614 | 0.78 | 0.666 | 0.301 | – | – | – | – | – |
| NCI-H441 | 0.646 | 0.546 | 0.686 | 0.453 | 0.312 | 0.645 | 0.625 | 0.345 | 0.224 | 0.182 | – | – | – | – | – | 0.782 | 0.906 | 0.807 | 0.376 | 0.292 |
| NCI-H322M | 0.815 | 0.888 | 0.818 | 0.577 | 0.647 | 0.863 | 0.962 | 0.73 | 0.728 | 0.611 | 0.558 | 0.596 | 0.55 | 0.586 | 0.389 | 0.655 | 0.74 | 0.72 | 0.377 | 0.353 |
| NCI-H2087 | 0.441 | 0.76 | 0.329 | 0.0956 | 0.15 | 1.08 | 0.975 | 0.641 | 0.524 | 0.23 | – | 0.83 | 0.912 | 0.551 | 0.278 | – | 0.465 | 0.379 | 0.184 | 0.162 |
| COR-L23 | 0.273 | 0.392 | 0.218 | 0.104 | 0.0886 | 0.48 | 0.487 | 0.352 | 0.214 | 0.13 | 0.854 | 1.06 | 0.92 | 0.588 | 0.14 | 0.316 | 0.292 | 0.219 | 0.123 | 0.123 |
